From patent US9676793B2, “Co-crystals of 5-amino-2-oxothiazolo[4,5-d]pyrimidin-3(2H)-yl-5-hydroxymethyl tetrahydrofuran-3-yl acetate and methods for preparing and using the same” (Hoffmann-La Roche Inc., priority 2014, dated 2017)
Read-outs that look alike come from different tables or passages of the source. Marks after values point to notes of the source that are not given here.

Experiments:
HBV = experiment: microbe, parasite or virus in culture
Description: Direct inhibition of viral replication was evaluated by monitoring the levels of secreted HBV DNA and the levels of HBV surface antigen (HBsAg) in cultures containing HBV infected HepaRG cells.
After three days incubation, the combined medium was replaced with differentiation medium and the cells were maintained in the differentiation medium for an additional 2 to 4 weeks. The differentiation medium was renewed every 2 to 3 days throughout the incubation period. Differentiated HepaRG cells (HepaRGd) display hepatocyte-like cell islands surrounded by monolayer of biliary-like cells. Prior to HBV infection and compound treatment, HepaRGd cells were seeded into collagen I coated 96-well plates (Gibco, Cat# A11428-03) at 50,000 to 60,000 cells per well. Cells were allowed to recover their differentiated phenotype in 96-well plates for at least 1 week after plating prior to HBV infection.
HBV inoculum was collected from HepG2.2.15 cultured cells, a cell line that supports HBV (genotype D, strain ayw) replication and virion secretion as disclosed in Sells M A., et al., PNAS, 84(4): 1005-1009. HepG2.2.15 cells were maintained in DMEM+GlutaMAX-I (Invitrogen) containing 1× Pen/Strep (Invitrogen), 10% FBS, and 0.25 mg/ml G-418 (Invitrogen) using hyperflasks (Corning) pre-coated with collagen I (BD Biosciences). Upon reaching confluency, HepG2.2.15 culture media was replaced with DMEM+GlutaMAX-I containing 1× Pen-Strep, 2.5% FBS, and 1% DMSO for 3 days and then replaced with DMEM+GlutaMAX-I containing 1× Pen-Strep and 1% DMSO. The 1% DMSO containing media was collected every 3 to 4 days over a two week period and HBV infectious virions and subviral particles were pelleted by ultracentrifugation through a 20% sucrose cushion in a Ti 45 Beckman rotor at 45,000 rpm for 3 hours at 4° C. The pellets were resuspended in WEM at a concentration of 10^8-10^9 genome equivalents (GE) per ml, determined by real time PCR as described below using a genotype D HBV containing plasmid DNA as an internal standard. To evaluate the infectivity of the inoculum, HepaRGd cells in 96-well plates were infected in differentiation medium containing 50 to 200 GE/cell and 4% PEG 8000 (PolyEthylene Glycol 8000, Sigma, Cat# P5413-500G) for 16 hr at 37° C. At the end of the infection, HBV inoculum was removed and cells were washed 3 times with differentiation medium. Differentiation medium was replenished every 2 to 3 days and HBV replication was monitored by measuring secreted HBV DNA, hepatitis B surface (HBsAg) and/or e (HBeAg) antigens.
HBsAg was detected from 50 μL of HBV infected HepaRG supernatants using the HBsAg chemiluminescence immunoassay (CLIA) kit following instructions as recommended by the manufacturer (Autobio Diagnostics Co., Zhengzhou, China). HBV DNA was extracted from 50 μL of HBV infected HepaRGd supernatants using the MagNA Pure 96 DNA and Viral NA Small Volume Kit (Roche, Cat#05 467 497 001). […] All PCR reactions were performed using the ViiA7 Real Time PCR system (Life Technologies).
Both direct and indirect inhibitory activity of HBV replication was measured. […] Aliquots of these reagents were added to independent wells of a 96-well culture plate containing HBV infected HepaRGd cells on day 4 post infection. The final concentration of DMSO in each well was 2%. The HepaRGd cells used in the inhibition study were maintained in differentiation media containing 2% DMSO.

[1] = BCS classification of co-crystals (aqueous solubility); format: physicochemical; details: for BCS Class (Stahl et al): Table 10
[2] = Hygroscopicity of co-crystals; format: physicochemical
[3] = Solid state stability by UPLC; format: physicochemical
Description: Solid state stability studies were performed by storing a test sample of the co-crystal at different temperatures and under conditions of different relative humidity for a period of one to three months. Stability was judged by Ultra performance liquid chromatography (UPLC) analysis of the test co-crystals. Percent degradation of API in a test sample of the co-crystal was calculated as follows: Co-crystals in accordance with the invention are fairly stable across the temperature range used in the study. […] Without ascribing to a particular theory, crystallinity may contribute to the stability of inventive co-crystals. Table 7 illustrates data from a stability of a Formula I glutaric acid co-crystal in accordance with the invention across a range of temperatures and in the presence of 75% relative humidity at 40° C. […] Further supporting the hypothesis that crystallinity contributes to increased stability was provided by comparing the amorphous form of the free base of a Formula I compound to the crystalline form of a Formula I compound as illustrated in Table 8.

[4] = Excipient compatibility assay (COMPASS), ternary mixtures; format: physicochemical; details: glutaric acid co-crystal ternary mixtures
Description: Compatibility of the inventive co-crystals with pharmaceutically acceptable excipients was determined by the classic compatibility assay (COMPASS). According to this method, excipient compatibility was investigated by physically mixing the inventive glutaric acid co-crystals with a single pharmaceutical excipient so as to form a binary mixture or by physically mixing the inventive glutaric acid co-crystals with mixtures containing two or more excipients (ternary mixture). Each binary mixture contained 5% by weight of the Formula I compound, whereas the weight percent of the Formula I compound in a ternary mixture was 50%. The test mixtures were stored at 50° C. for 4 weeks or at a temperature of 40° C. and a relative humidity of 75% for 4 weeks.
The inventive co-crystals are compatible with fillers and/or excipients commonly used in the manufacture of pharmaceutical compositions. Table 4 illustrates the results of a compatibility study using ternary mixtures of the inventive glutaric acid co-crystal of the Formula I compound. Table 5 illustrates the results for a similar study using ternary mixtures of the tosylate salt of the Formula I compound.
Ternary mixtures comprising the inventive glutaric acid co-crystal or the tosylate salt of a Formula I compound contained the following excipients in proportions illustrated in Table 6 below.

[5] = Pharmacokinetic study after oral administration; format: in vivo, cynomolgus monkeys
Description: Studies were undertaken to compare the pharmacokinetics (PK) of the glutaric acid co-crystal to the PK of the tosylate salt of the Formula I compound. A 3% solution of Blanose 7LF PM without preservatives was used to formulate the glutaric acid co-crystal and tosylate salt. Results from a pharmacokinetic study in cynomolgus monkeys indicate that the plasma concentration of the glutaric acid co-crystal was greater than the corresponding tosylate salt following oral administration of each compound.
In this study, each compound was administered orally at a dose of 10 mg/kg to cynomolgus monkeys. Following administration, blood was obtained from each test subject at 0 min, 60 min, 120 min and 180 minutes. After separating the plasma from whole blood an aliquot to each plasma sample was denature by the addition of 70% ethanol. The denatured protein was pelleted by centrifugation and the supernatant was collected and dried using a stream of dry nitrogen gas. The pellet thus obtained was re-constituted in water containing 0.1% formic acid and the re-constituted mixture was analyzed by UPLC using a HSS-T3 (high strength silica) column or an YMC TriartC-18 column. Gradient elution using a mixture of water containing 0.1% HCOOH (mobile phase-A) and acetonitrile containing 0.1% HCOOH (mobile phase-B) was employed for analysis of the pharmacokinetic (PK) samples.

[6] = Solubility and solution stability in buffers by UPLC; format: physicochemical; details: thermodynamic from solid, read-out: solubility: free-base form of the Formula I compound present per milliliter of buffer solution
Description: Studies have shown that the co-crystals were soluble in water and buffered solvents.
Unlike the tosylate salt, no genotoxic by-products are formed in solutions of the inventive co-crystals.

[7] = tested on: HBV infected HepaRGd cells; experiment: Cell viability by CellTiter-Glo, direct treatment; format: cell-based
[8] = read-out: EC50 against HBV DNA secretion, HBV infected HepaRG cell assay
[9] = 4 weeks/40° C./ambient conditions (closed container)
[10] = solid, 1 month, 40° C./75% r.h.
[11] = solid, 2 months, 40° C./75% r.h.

## IL-6: interleukin 6, cytokine
HBV; [8]
  EC50: 0.027 ± 0.0073 nM
HBV; read-out: EC50 against secretion of HBsAg, HBV infected HepaRG cell assay
  EC50: 0.26 ± 0.02 nM

## 5-amino-3-(2′-O-acetyl-3′-deoxy-β-D-ribofuranosyl)-3H-thiazolo[4,5]pyrimidine-2-one [glutaric acid co-crystal]
[1]; Table 1
  BCS Class: 1
[1]
  BCS Class (Stahl et al): 1
[2]; grade in words
  Hygroscopicity: slightly
[2]; mass change ±
  Hygroscopicity: (±0.3%-m/m)

## CC(=O)O[C@@H]1C[C@@H](CO)O[C@H]1n1c(=O)sc2cnc(N)nc21 [free base Formula I-crystalline, 5-amino-2-oxothiazolo[4,5-d]pyrimidin-3(2H)-yl-5-hydroxymethyl tetrahydrofuran-3-yl acetate]
[3]; 4 weeks/40° C./75% r.h.
  % Area Formula I: 99.56 % Area
  % degradation: 0.15%
  stability grade: stable
[3]; [9]
  % Area Formula I: 99.52 % Area
  % degradation: 0.19%
  stability grade: (stable)
[3]; free base forms, T0
  T0 % Area Formula I: 99.71 % Area
[4]; 4 weeks at 40° C./75% RH
  % Area Formula I: 99.740 % area
  % degradation: −0.030%
  Stability: Fairly
[4]; 4 weeks at 50° C.
  % Area Formula I: 99.670 % area
  % degradation: 0.040%
  Stability: Fairly
[4]; Reference 4 weeks at 2-8° C.
  % Area Formula I: 99.710 % area

## CC(=O)OC1CC(CO)OC1n1c(=O)sc2cnc(N)nc21.Cc1ccc(S(=O)(=O)O)cc1 (stereo not shown) [Tosylate Salt, 5-amino-2-oxothiazolo[4,5-d]pyrimidin-3(2H)-yl-5-hydroxymethyl tetrahydrofuran-3-yl acetate]
[5]; monkeys, oral dose of 10 mg/kg, compared with glutaric acid co-crystal
  levels of the de-acetylated form of the Formula I compound and biologically active species in plasma: lower levels

## CC(=O)O[C@@H]1C[C@@H](CO)O[C@H]1n1c(=O)sc2cnc(N)nc21 [glutaric acid co-crystal, 5-amino-3-(2′-O-acetyl-3′-deoxy-β-D-ribofuranosyl)-3H-thiazolo[4,5]pyrimidine-2-one]
[3]; solid, 1 month, 2-8° C.
  % Area Formula I: 99.02 % Area
  % degradation: −0.08%
[3]; solid, 1 month, 40° C.
  % Area Formula I: 99.05 % Area
  % degradation: −0.11%
[3]; [10]
  % Area Formula I: 99.14 % Area
  % degradation: −0.2%
[3]; solid, 1 month, 60° C.
  % Area Formula I: 99.01 % Area
  % degradation: −0.07%
[3]; solid, 1 month, RT
  % Area Formula I: 98.9 % Area
  % degradation: 0.04%
[3]; solid, 2 months, 2-8° C., reference for 2 month stability
  % Area Formula I: 99.32** % Area
[3]; solid, 2 months, 40° C.
  % Area Formula I: 99.35 % Area
  % degradation: −0.04%
[3]; [11]
  % Area Formula I: 99.34 % Area
  % degradation: −0.03%
[3]; solid, 2 months, 60° C.
  % Area Formula I: 99.56 % Area
  % degradation: −0.25%
[3]; solid, 2 months, RT
  % Area Formula I: 99.22 % Area
  % degradation: −0.10%
[3]; solid, T0, reference for 1 month stability
  T0 % Area Formula I: 98.94* % Area
[5]; cynomolgus monkeys, oral, 10 mg/kg
  plasma concentration of the de-acetylated form of the Formula I compound compared to tosylate salt: about two-fold
HBV; cultured HepaRG cells
  direct inhibition of HBV viral replication: did not inhibit viral replication
[6]; aqueous buffer, pH 4.0 buffer
  solubility: ~8 mg/mL
[6]; buffer solution, aqueous buffer, pH 7.0 buffered solution
  solubility: ~22 mg/mL
[6]; buffer solution, simulated gastric fluid, pH 1.0 buffered solution
  solubility: > 60 mg/mL

## TNF-α
HBV; [8]
  EC50: 0.085 ± 0.046 nM
HBV; read-out: EC50 against HBsAg secretion, HBV infected HepaRG cell assay, unit inferred
  EC50: 0.32 nM

## Fumaric acid
[2]; grade in words
  Hygroscopicity: slightly
[2]; mass change ±
  Hygroscopicity: (±0.6%-m/m)

## O=C(O)CCC(=O)C(=O)O [α-ketoglutaric acid]
[1]
  BCS Class (Stahl et al): 1
[2]; grade in words
  Hygroscopicity: slightly
[2]; mass change ±
  Hygroscopicity: (±0.8%-m/m)

## CC(=O)O[C@@H]1C[C@@H](CO)O[C@H]1n1c(=O)sc2cnc(N)nc21 [free base Formula I-amorphous, 5-amino-2-oxothiazolo[4,5-d]pyrimidin-3(2H)-yl-5-hydroxymethyl tetrahydrofuran-3-yl acetate]
[3]; 4 weeks/40° C./75% r.h.
  % Area Formula I: 86.34 % Area
  % degradation: 13.57%
  stability grade: very
[3]; [9]
  % Area Formula I: 98.89 % Area
  % degradation: 1.011%
  stability grade: (moderately
[3]; free base forms, T0
  T0 % Area Formula I: 99.90 % Area

## Nc1ccccc1C(=O)O [2-aminobenzoic acid]
[2]; grade in words
  Hygroscopicity: slightly
[2]; mass change ±
  Hygroscopicity: (±1.8%-m/m)

## IP-10: IFNγ-induced protein 10, chemokine
HBV; read-out: EC50, HBV replication inhibitory effect, highest concentration tested
  EC50: > 115 nM
[7]
  CC50: > 115 nM
